This is an account of results in EP1903028A1, “Conjugates of glutamate and NMDA receptor channel blockers without excito-toxic effects” (Tschollar,, Werner, priority 2006, dated 2008).

A word on the IC50: it is the concentration needed to halve the response being measured. For orientation: Tmax means the time from dosing to the highest level.

Like-named read-outs stand apart in the source and are kept apart here.

In one series the target is T1, aminopeptidase A (Rattus norvegicus, UniProt P50123).
T1 construct: Hippocampi were removed on ice and coronal slices chopped (0.40 mm thick); from tissue; host or cells: rat hippocampal slices
Format: in vitro ADME. On the procedure:
Animals were housed in plastic cages, with free access to standard laboratory food and water, under controlled conditions of lighting, humidity and temperature. Rats were killed by decapitation and brains were quickly removed and immediately transferred in ice-cold artificial cerebrospinal fluid (aCSF) having the following composition (mM):125 NaCl, 3 KCl, 1.2 CaCl2, 1.2 MgSO4, 1 NaH2PO4, 22 NaHCO3 and 10 glucose (aerated with 95% O2 and 5% CO2 at 37°C), pH 7.2-7.4. Hippocampi were removed on ice and coronal slices chopped (0.40 mm thick). Slices were then incubated for 1 h in the presence of a 95% O2and 5% CO2 current (37°C). After washing with fresh aCSF (37°C), slices were transferred to a modified 24 chamber's cell culture well (2 slices per chamber) adapted to accept a constant current of 95% O2 and 5% CO2 all experiment time long. 2 ml aCSF was present in each chamber. Some experiments were performed in a modified aCSF containing 1mM EGTA in the absence of Ca^2+ ions. Drugs were added immediately before slices. After 1h incubation at 37°C, 80 µl aCSF per chamber was drawn in order to evaluate the metabolization time-course. After 3h incubation the experiment ended with a new 80 µl drawing.
Rat hippocampal slices, incubated in physiological conditions (95% 02; 5% CO2 at 37°C, pH 7.2-7.4), metabolized Compound 1 ((S)-4-amino-5-[(4,4-dimethylcyclohexyl)-amino]-5-oxo-pentanoic acid) into Compound 2 (4,4-dimethyl-cyclohexamine) + glutamic acid. After 1h incubation 2,5% ± 0,3% (n=2) Compound 1 was cleaved to yield Compound 2. After 3h incubation 9,0% ± 0,0% (n=2) Compound 1 was cleaved to Compound 2. In the presence of 3 µM amastatin, a selective inhibitor of aminopeptidase A, the cleavage of Compound 1 at 1h and 3h was reduced to 0,5% and 2,0%, respectively (see Figure 2). […] Since aminopeptidase A is a Ca++-dependent enzyme, the cleavage of Compound 1 was then examined under Ca++ -free conditions. In the absence of Ca++ ions, Compound 1 cleavage was inhibited by 76% at 1h and 3h. Aminopeptidase A therefore appears to be the principal enzyme responsible for the cleavage of Compound 1 into Compound 2 plus glutamate.

In series [1] the test system is rats. Briefly: Radial maze learning test. As to conditions: for test acquisition in the radial maze: Compound 1: 1-30 mg/kg, versus control animals. The format is in vivo. On the procedure: In another experiment of learning, a radial maze test was used. The radial maze consisted of eight arms radiating from a centre platform. The platform was 40 cm in diameter and the eight arms were 60 cm long, 13 cm wide, with walls 10 cm high. The surface of the maze was elevated 50 cm from the floor. Plastic food cups (4 cm in diameter) were at the end of each arm. One 50 mg micro-pellet was placed in a cup at the beginning of each trial. In the training session, the rat was placed in the centre of the platform facing arm #4 and allowed to freely explore the maze. The animal was left in the maze until it ate all of the 24 pellets placed three per arm.

A short description of the next series: in vivo. As to conditions: rat, 30 mg/kg. On the procedure: The average (± s.e.m.) plasma and cerebrospinal fluid levels of Compound 1, after a single i.p. or oral administration of 30 mg/kg plotted against time (h), are given in Figure 1. Compound 1 appeared in plasma shortly after both oral and i.p. administration, with a lag-time of 0.12 h. […] Compound 1 crossed the blood-CSF barrier very rapidly, showing lag times of 0.1-0.23 h after oral and i.p. administration, respectively. The maximum concentration of Compound 1 in the CSF was reached 45-60 min after oral and i.p. administration. […] Compound 1 therefore efficiently crosses into the CSF in rats.

Series [2] has as its system rats. As to the kind of experiment: Lever-holding operant behaviour (Skinner Box). Format: in vivo. The conditions noted are these: 3-10-30 mg/kg i.p., 14 days, p=0.007 versus control. On the procedure:
In a further test of learning, lever-holding operant behaviour was tested in a standard rodent operant conditioning chamber (Skinner Box). Rats were trained to press the lever for water reward on a continuous reinforcement schedule, for which each lever pressing was rewarded. Daily sessions lasted 30 min and were performed under a green light. Water was restricted to a 30 min post-session period. After two days of stabilisation, rats were subjected to a visual discrimination schedule, in which a green light signalled the availability of the reinforcement for 60 sec, followed by a 30 sec interval with no reinforcement. Daily sessions lasted 30 min and were repeated for 14 days. Data were expressed as the Efficiency Index, which is a ratio of reinforced (correct responses during a session) to non-reinforced responses.

Series [3] deals with rats. Briefly: Scopolamine-induced memory impairment, passive avoidance. The format is in vivo. As to conditions: Compound 1: 1 and 10 mg/kg, i.p.; significant (p<0.05) at 10 mg/kg. On the procedure:
(§1) The cleavage is inhibited by the specific aminopeptidase A inhibitor amastatin. The amount of Compound 2 produced by cleavage of Compound 1 after 3 hours incubation with hippocampal slices is shown. AMA=Amastatin. • FIGS. 3A,B show inhibition of NMDA function by Compound 2. […] Effects of Compound 2 on [^3H]MK-801 binding enhanced by glycine (panel A), glutamate (panel B) and spermine (panel C). […] The 3H-MK-801 concentration was approx. 3 nM in all the experiments. […] Effect of Compound 1 administered i.p. twice a day (30 min before session and at 5.00 p.m.) for 4 days. […] Data are Mean ± s.e.m. of the efficiency indexes grouped in 2-day intervals. […] Values represent the median latency (sec) to enter the shock compartment and interquartile ranges. †P <0.05 vs. scopolamine + (FS), ‡P < 0.01 vs. saline + (FS) (log rank test). […] Values represent the median latency (s) to enter the shock compartment and interquartile ranges. **P < 0.01 vs. vehicle no ECS, †P< 0.05 and ‡P< 0.01 vs. vehicle + ECS (log rank test).
In this experiment, Compound 1 was tested to determine whether it could reverse scopolamine-induced memory impairment in a passive-avoidance paradigm in rats.

Series [4] is described as follows: Electroconvulsive shock-induced memory impairment. Format: in vivo. The conditions noted are these: Compound 1: 3, 10 and 30 mg/kg; significant at 10 and 30 mg/kg (P <0.05, P <0.01). On the procedure: as §1
In another model of memory impairment, electroconvulsive shock was employed as a memory de-stabilizer. […] For doses of 10 and 30 mg/kg the effect was statistically significant (P <0.05 and P <0.01, respectively) (see Figure 7B).

For series [5], the system named is gerbils subjected to bilateral occlusion of the carotid arteries. As to the kind of experiment: Neuro-protection after bilateral occlusion of the carotid arteries in vivo. On the set-up: species or system Mongolian gerbils. On the procedure:
This experiment investigated the neuro-protective effects of Compound 2 in gerbils subjected to bilateral occlusion of the carotid arteries. Mongolian gerbils were anaesthetised with halothane and the right and left common carotid arteries were occluded for a period of 5 min. […] The brains were cut into 10 µm-thick sections in the area of the hippocampus and sections were stained with cresyl violet. Quantitative assessment of area occupied by CA pyramidal neurons was performed using an image analyser (Kontron, KS300). For each animal, measurements were made in a defined field from both hippocampi in 4 coronal sections. The raw data were represented by the mean of 8 measures. The pattern of hippocampal neuro-degeneration following ischemia consisted of a significant decrease of neuronal nuclei area.
Compound 2 at a dose of 16 mg/kg, was 100% protective (see Figure 5).

In series [6] the test system is rats. Briefly: Step-through active avoidance test (acquisition of active avoidance behaviour). The format is in vivo. As to conditions: for percent of conditioned avoidance: Compound 1: 3 and 10 mg/kg i.p. twice a day, 5 days, p<0.001. On the procedure:
as §1
The acquisition of active avoidance behaviour was evaluated during one 40-trial daily session for 5 consecutive days. Compound 1, when given at doses of 3 and 10 mg/kg, increased the percent of conditioned avoidance (see Figure 6A).

The subject of another series is CA1 pyramidal neurons. Briefly: NMDA excito-toxicity in hippocampal slices in vitro (area of CA1 pyramidal neurons). The format is cell-based, rat. The conditions noted are these: 100 µM NMDA, compound added 15 min prior, 45 min incubation. On the procedure: In this experiment, slices were obtained from hippocampi of young (8 day old) rats. After one hour of pre-incubation, NMDA was added to give a final concentration of 100 µM. Either Compound 1 or Compound 2 was added 15 min prior to NMDA and the incubation was carried out for 45 min. Three slices of each sample were collected and fixed with glutaraldehyde (5%). After embedding and freezing, sections (4 µm) were stained with Cresyl violet. Neuronal injury was studied with light microscopy using an imaging analyser (Kontron, KS300). The area occupied by CA1 pyramidal neurons was measured in an analyser-defined field. The pattern of hippocampal neuro-degeneration following NMDA-stimulation consisted of a significant decrease in neuronal nuclei area. […] In contrast, Compound 1 had no effect on NMDA-induced neuronal damage (results not shown).

A further series concerns the target T2, NMDAR (subtype NR1/NR2A) (Homo sapiens, UniProt Q05586+Q12879).
T2 construct: expressed in transfected cells
Briefly: Glutamate-evoked currents in NMDA receptor-transfected oocytes. The format is cell-based. As to conditions: glutamate 10uM, 100uM glycine, read-out: IC50, inhibition of glutamate-stimulated Ca current. On the procedure: Glutamate stimulates an inward Ca current through the NMDA receptor channel by binding to a specific ligand-binding site at the NR1/NR2 subunit interface and opening the ion channel to the influx of calcium. Glutamate (10uM) was added to oocytes transfected with the NMDAR (subtype NR1/NR2A) in the presence of 100uM glycine and increasing amounts of Compound 2.

The next series deals with NMDA receptor. Briefly: [3H]MK-801 binding to washed rat cortical membranes enriched for NMDA receptors. As to conditions: binding enhanced by glycine, glutamate or spermine; 10, 100, 1000 µM Compound 2; approx. 3 nM 3H-MK-801. On the procedure: as §1
MK-801 (dizocilpine) is an open-channel ligand of the NMDA Ca channel. Washed rat cortical membranes enriched for NMDA receptors were incubated with increasing concentrations of the co-agonists glycine or glutamate, or the positive modulator spermine, and Compound 2. The binding of ^3H MK801 was then measured. […]

T1 sequence (P50123 whole entry): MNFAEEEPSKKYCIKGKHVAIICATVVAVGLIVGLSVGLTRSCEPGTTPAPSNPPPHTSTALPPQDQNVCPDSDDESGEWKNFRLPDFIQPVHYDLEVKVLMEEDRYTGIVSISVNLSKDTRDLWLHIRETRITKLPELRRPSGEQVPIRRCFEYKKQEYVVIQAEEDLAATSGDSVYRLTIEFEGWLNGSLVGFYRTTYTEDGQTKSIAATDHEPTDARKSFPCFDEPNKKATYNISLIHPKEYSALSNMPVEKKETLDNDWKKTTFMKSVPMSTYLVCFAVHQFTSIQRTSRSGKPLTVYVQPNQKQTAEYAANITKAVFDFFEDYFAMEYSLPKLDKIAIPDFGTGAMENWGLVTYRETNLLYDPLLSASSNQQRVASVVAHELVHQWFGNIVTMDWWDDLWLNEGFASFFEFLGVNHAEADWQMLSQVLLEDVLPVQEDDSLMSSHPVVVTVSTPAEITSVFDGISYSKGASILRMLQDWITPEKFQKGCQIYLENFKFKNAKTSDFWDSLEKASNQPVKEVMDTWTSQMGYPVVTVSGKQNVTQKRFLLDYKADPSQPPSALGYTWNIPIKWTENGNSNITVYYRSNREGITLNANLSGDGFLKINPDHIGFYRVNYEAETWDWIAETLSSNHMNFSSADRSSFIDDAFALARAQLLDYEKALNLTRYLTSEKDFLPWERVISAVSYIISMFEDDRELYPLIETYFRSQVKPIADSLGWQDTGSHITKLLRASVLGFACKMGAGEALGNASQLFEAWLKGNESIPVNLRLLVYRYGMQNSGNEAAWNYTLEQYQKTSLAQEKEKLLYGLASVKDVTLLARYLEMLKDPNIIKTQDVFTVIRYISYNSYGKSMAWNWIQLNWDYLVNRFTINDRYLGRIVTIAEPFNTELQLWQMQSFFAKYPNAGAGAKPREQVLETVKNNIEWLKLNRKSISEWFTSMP
T2 sequence (Q12879 23-1464, other chains not shown): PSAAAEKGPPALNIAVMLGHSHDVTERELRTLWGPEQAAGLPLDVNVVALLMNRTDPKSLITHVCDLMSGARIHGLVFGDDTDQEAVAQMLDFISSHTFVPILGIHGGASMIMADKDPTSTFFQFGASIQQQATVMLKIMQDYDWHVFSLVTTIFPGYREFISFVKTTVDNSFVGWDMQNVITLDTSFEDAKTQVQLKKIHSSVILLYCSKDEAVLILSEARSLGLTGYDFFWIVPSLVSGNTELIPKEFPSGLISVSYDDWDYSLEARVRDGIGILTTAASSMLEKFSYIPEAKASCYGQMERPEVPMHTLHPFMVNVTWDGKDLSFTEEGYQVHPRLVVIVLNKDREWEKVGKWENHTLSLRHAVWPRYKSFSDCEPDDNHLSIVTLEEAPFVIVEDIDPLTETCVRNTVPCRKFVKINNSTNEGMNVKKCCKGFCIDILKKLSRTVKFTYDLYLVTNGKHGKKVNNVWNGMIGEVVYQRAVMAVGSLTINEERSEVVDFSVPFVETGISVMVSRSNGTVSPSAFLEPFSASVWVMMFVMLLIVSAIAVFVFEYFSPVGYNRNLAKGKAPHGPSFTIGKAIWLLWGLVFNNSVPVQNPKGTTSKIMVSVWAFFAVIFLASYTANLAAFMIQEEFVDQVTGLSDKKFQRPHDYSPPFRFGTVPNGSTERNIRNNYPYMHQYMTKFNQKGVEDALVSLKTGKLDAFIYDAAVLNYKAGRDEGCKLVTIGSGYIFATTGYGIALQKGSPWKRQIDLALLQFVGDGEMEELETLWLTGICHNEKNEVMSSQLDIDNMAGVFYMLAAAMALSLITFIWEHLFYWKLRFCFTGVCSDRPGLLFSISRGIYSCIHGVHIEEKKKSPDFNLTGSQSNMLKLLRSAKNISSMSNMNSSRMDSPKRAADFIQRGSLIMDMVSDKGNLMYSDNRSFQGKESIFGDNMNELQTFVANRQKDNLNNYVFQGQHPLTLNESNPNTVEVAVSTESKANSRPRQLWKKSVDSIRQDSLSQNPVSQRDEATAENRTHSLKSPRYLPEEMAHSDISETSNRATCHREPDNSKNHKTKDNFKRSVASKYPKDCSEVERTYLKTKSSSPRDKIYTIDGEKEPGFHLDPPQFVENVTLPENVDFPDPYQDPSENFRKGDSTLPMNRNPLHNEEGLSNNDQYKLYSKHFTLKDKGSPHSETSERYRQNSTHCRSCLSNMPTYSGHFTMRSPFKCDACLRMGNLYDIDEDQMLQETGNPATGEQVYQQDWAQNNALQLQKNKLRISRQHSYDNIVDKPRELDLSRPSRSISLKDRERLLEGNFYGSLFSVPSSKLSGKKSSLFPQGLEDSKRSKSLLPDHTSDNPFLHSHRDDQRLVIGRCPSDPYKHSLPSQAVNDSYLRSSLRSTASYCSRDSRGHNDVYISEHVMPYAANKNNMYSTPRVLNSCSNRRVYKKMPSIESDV

`CC(C)C[C@@H](N)[C@H](O)C(=O)N[C@H](C(=O)N[C@H](C(=O)N[C@@H](CC(=O)O)C(=O)O)C(C)C)C(C)C` [Amastatin, reference compound]: the IC50 on aminopeptidase A (rat hippocampal slices, read-out: IC50, inhibition of cleavage of Compound 1) was 300 nM.

Take `CC1(C)CCC(NC(=O)[C@@H](N)CCC(=O)O)CC1` [Compound 1, (S)-4-amino-5-(4,4-dimethylcyclohexylamino)-5-oxopentanoic acid]: in the series on rats [1] (10 and 30 mg/kg (P <0.05, P <0.01, respectively)), the “number of sessions to reach acquisition criterion” value is on record as “decreased”. The “test acquisition in the radial maze” value in the series with rats [1] is given as “faster test acquisition”. For the same compound, in “in vivo”, the Tmax is 1 h, the plasma lag-time turned out to be 0.12 h and the “time to maximum concentration in the CSF” value is 45 to 60 min. In addition, in “in vivo” (ip), the Kp was found to be 0.48 and the “lag time for crossing the blood-CSF barrier” value was 0.23 h. Besides, in the series “in vivo” (po), the Kp came to 0.62 and the “lag time for crossing the blood-CSF barrier” value is 0.1 h. Further, in the series on rats [2], the “percent of reinforced responses (Efficiency Index)” value is given as “increased in a dose-dependent manner”. In addition, in the series with rats [3], the “retention latency, reversal of scopolamine-induced memory impairment” value is given as “dose-dependently increased latency”. For the same compound, the “Compound 1 cleavage inhibited” value on aminopeptidase A (in the absence of Ca++ ions, at 1h and 3h) worked out at 76%. Moreover, the “Compound 1 cleaved to yield Compound 2” value at aminopeptidase A (rat, 1 h, pH 7.2) is given as 2,5% ± 0,3%. Moreover, the “Compound 1 cleaved to Compound 2” value on aminopeptidase A (rat, 3 h, pH 7.2) is 9,0% ± 0,0%. In addition, the “step-down latency after electroconvulsive shock” value in series [4] is recorded as “dose-dependently increased step-down latency”. Further, in series [5] (50mg/kg, ischemia alone 50% 7-day mortality), the mortality result is recorded as “zero”. Further, in the series with rats [6], the “percent of conditioned avoidance” value is recorded as “increased”. In addition, in the series with rats [6] (rat, in vivo), the “uncoordinated escape responses or spontaneous inter-trial responses” value is “did not affect”. The “effect on NMDA-induced neuronal damage” value in the series with CA1 pyramidal neurons is on record as “no effect”.

With `CC1(C)CCC(N)CC1` [Compound 2, 4,4-dimethyl-cyclohexylamine], in the series with rats [1], the “test acquisition in the radial maze” value is listed as “without effect”. Besides, the IC50 turned out to be 30 µM on NMDAR (subtype NR1/NR2A) (100 millivolts); 117 µM on NMDAR (subtype NR1/NR2A) (-60 millivolts); 189 ± 42.4 µM in the series on CA1 pyramidal neurons (Rattus norvegicus, Pyramidal neuron, slices of 8 day old rats, read-out: IC50, prevention of NMDA-induced damage). Besides, the “retention latency, reversal of scopolamine-induced memory impairment” value with rats [3] is listed as “unable to reverse”. The “step-down latency after electroconvulsive shock” value in series [4] was “without effect”. For the same compound, in series [5] (16 mg/kg, 1 hour prior to ischemia, ischemia alone 50% mortality), the “protective (7-day mortality)” value is recorded as 100%. For the same compound, the “protection from neuronal degeneration and death” value in series [5] (administered 1 hour prior to ischemia) is reported as “dose-dependently protected”. For the same compound, the “inhibition of MK-801 binding” value in the series with NMDA receptor was “inhibited MK-801 binding in a dose-dependent fashion”. Further, in the series on rats [6], the “percent of conditioned avoidance” value was “without activity”.
